Results taken from US9896662B2, “Process for enhancing stem cell bioactivity using tauroursodeoxycholic acid” (Pusan National University Industry—University Cooperation …, priority 2014, dated 2018).

Legend:
[1] = test system: CD34+ cells on bone marrow stromal cells; assay: adhesion and dissociation of CD34+ cells on bone marrow stromal cells (fluorescence microscope count); format: cell-based; conditions: TUDCA 50, 100 μM, incubated 1 hour, compared with the control
Description: When ischemic damage occurs, for vascular repair, a process in which angiogenic stem cells integrated with bone marrow stromal cells are dissociated from bone marrow and transported to ischemic tissue first occurs in the vascular repair mechanism. In order to confirm a change in dissociation of angiogenic stem cells from bone marrow stromal cells by TUDCA, CD34^+ cells stained with CM-DiI (staining red), which were treated with TUDCA (0, 50, 100 μM), were incubated for 1 hour on glass slides in which bone marrow stromal cells were seeded. The number of CD34^+ cells adhered to or dissociated from bone marrow stromal cells was counted by a fluorescence microscope (FIGS. 1a, 1b, and 1c). AMD3100, a CXCR4 antagonist, was used as a positive control.

[2] = test system: ICAM, Jagged1, N-cadherin, LFA1, and c-kit; assay: mRNA expression of cell adhesion factors in CD34+ cells; format: cell-based; conditions: TUDCA 50 μM for 5 hours
Description: Based thereon, a change in mRNA expression of cell adhesion factors involved in cell adhesion was confirmed. After treating CD34^+ cells with TUDCA (50 μM) for 5 hours, mRNA expression of ICAM, Jagged′, N-cadherin, LFA1, and c-kit, which are involved in cell adhesion, was confirmed.

[3] = test system: CD34+ hematopoietic stem cells (HSCs); assay: trans-well assay of cell migration capability; format: cell-based; conditions: TUDCA 0, 10, 50, 100 μM; concentration-dependent
Description: (§1) In order to confirm mobilization capability of angiogenic stem cells, which were dissociated from bone marrow stromal cells, to peripheral blood, CD34^+ hematopoietic stem cells (HSCs) were treated with various concentrations of TUDCA (0, 10, 50, 100 μM), to confirm the cell migration capability by trans-well assay. […] Based on the result, TUDCA (10 mg/kg) was orally administered to C57BL/6 mice, and the number of angiogenic stem cells (CD34^+/Sca1^+) in peripheral blood were analyzed by FACS analysis over time (at day 0, 1, 3).

[4] = test system: angiogenic stem cells (CD34+/Sca1+) in peripheral blood; assay: FACS analysis of angiogenic stem cells in peripheral blood after oral administration; format: in vivo; conditions: 10 mg/kg oral, C57BL/6 mice, day 0, 1, 3
Description: as §1

[5] = test system: angiogenic stem cells in peripheral blood; assay: Hill's assay of cell populations mobilized to peripheral blood; format: in vivo; conditions: oral, mice; concentration and time-dependent
Description: (§2) When TUDCA was orally administered, a variety of cell populations are mobilized to peripheral blood. After orally administering TUDCA to mice, the cell populations were analyzed by Hill's assay. As a result, it was confirmed that the number of angiogenic stem cells increased in TUDCA concentration and time-dependent manner (FIGS. 4a and 4b). In order to confirm side effects caused by mobilization of cell populations associated with immunity and inflammation, other than angiogenic stem cells, upon treatment with TUDCA, the change in the number of leukocytes, lymphocytes, monocytes, and granulocytes in peripheral blood was confirmed by complete blood cell (CBC) count. […] Also, it was confirmed that […] are EPCs by confirming the uptake of acetyl-LDL and FITC-isolectin B4 (FIG. 4d).

[6] = test system: leukocytes, lymphocytes, monocytes, and granulocytes in peripheral blood; assay: complete blood cell (CBC) count; format: in vivo; conditions: oral, mice, 10 mg/kg for 3 days
Description: as §2

[7] = test system: CD34+ HSCs; assay: EPC colony forming capability of CD34+ HSCs (differentiation into the EPC lineage); format: cell-based
From the text: (§3) Meanwhile, in order to clarify the impact of TUDCA on CD34^+ HSC differentiation into the EPC lineage, the EPC colony forming capability of CD34^+ HSCs was examined. As a result, it was confirmed that the EPC colony forming capability was enhanced by TUDCA (FIG. 4e). Further, as Akt activation via PI3-kinase increases differentiation of CD34^+ HSCs into the EPC lineage, it was examined whether TUDCA activates Akt in CD34^+ HSC. As a result, it was confirmed that TUDCA increased Akt phosphorylation, and the exposure to LY294002, a PI3K inhibitor, inhibited TUDCA-mediated CD34^+ HSC differentiation into the EPC lineage (FIG. 4f).

[8] = test system: Akt; assay: Akt activation in CD34+ HSC; format: cell-based
From the text: as §3

[9] = test system: Human arterial endothelial cells (HAECs) mixed with angiogenic stem cells; assay: tube formation assay of HAECs mixed with angiogenic stem cells; format: cell-based; conditions: TUDCA 50 μM
From the text: It is the most significant process in the vascular recovery mechanism that angiogenic stem cells mobilized from bone marrow are integrated with vascular endothelial cells preexisting in damaged tissue, to generate new blood vessels through interaction. Human arterial endothelial cells (HAECs) were mixed with angiogenic stem cells, and then the integration capability between the two cells was examined by tube formation assay.

[10] = test system: CD44, N-cadherin, c-kit, and LFA1 in HAECs; assay: mRNA expression levels of cell adhesion molecules in HAECs; format: cell-based, Human
From the text: (§4) Further, as the first step of integration with vascular endothelial cells is cell adhesion, mRNA expression levels of cell adhesion molecules in HAECs and EPCs were examined.

[11] = test system: CD44, Jagged-1, N-cadherin, VLA5, CXCR4, c-kit, and Notch in EPCs; assay: mRNA expression levels of cell adhesion molecules in EPCs; format: cell-based
From the text: as §4

[12] = test system: angiogenic stem cells; assay: proliferation capability of angiogenic stem cells; format: cell-based; conditions: 50 μM of TUDCA (tested 0, 10, 50, 100 μM)
Description: (§5) In order to confirm that the treatment with TUDCA involves enhancement of biological activity functions of angiogenic stem cells in addition to enhancement of mobilization and migration capabilities of angiogenic stem cells from bone marrow to peripheral blood and ischemic tissue, angiogenic stem cells were treated with different concentrations (0, 10, 50, 100 μM) of TUDCA. Then, various biological activity functions were evaluated. […] In order to confirm vascular differentiation potential, tube-forming capability was examined.

[13] = test system: angiogenic stem cells; assay: infiltration capability of angiogenic stem cells; format: cell-based; conditions: 50 μM of TUDCA
Description: as §5

[14] = test system: angiogenic stem cells; assay: tube-forming capability of angiogenic stem cells; format: cell-based; conditions: TUDCA 0, 10, 50, 100 μM; concentration-dependent
Description: as §5

[15] = test system: hindlimb ischemic tissue; assay: mouse hindlimb ischemia model, oral TUDCA; format: in vivo; conditions: 20 mg/kg oral every day
Description: TUDCA was applied to mouse disease models based on the above experiments, to verify the effects. Mouse hindlimb ischemia model, which is one of the disease animals, for verifying vascular repair capability was prepared. Thereafter, 20 mg/kg of TUDCA was orally administered to mice every day, to confirm vascular repair capability over time. […] In order to confirm whether angiogenic stem cells were mobilized by TUDCA to hindlimb ischemic tissue, hindlimb ischemic tissue was removed 3 days after the preparation of the hindlimb ischemia models, and flow cytometry was performed using an angiogenic stem cell marker. As a result, it was confirmed that the number of angiogenic stem cells in ischemic tissue increased in the group to which TUDCA was orally administered (FIG. 7c). In order to confirm angiogenesis by TUDCA, hindlimb ischemic tissue was removed 14 days after the preparation of the hindlimb ischemia models and subjected to immunofluorescent staining, to verify capillary density and arteriole density.

[16] = test system: hindlimb ischemic tissue; assay: hindlimb ischemia model in GFP bone marrow-transplanted mice, oral TUDCA; format: in vivo, GFP-BMT mice (C57BL/6); conditions: 20 mg/kg oral, GFP-BMT mice
From the text: It is known that angiogenic stem cells are mainly present in bone marrow, but they are present in different tissues than bone marrow. In order to confirm whether angiogenic stem cells are derived from bone marrow by TUDCA and involved in vascular repair mechanism, bone marrow was isolated from green fluorescent protein (GFP) mice and transplanted into C57BL/6. Once bone marrow transplantation (BMT) mice are thus prepared, chimeric mice which show green fluorescence only for bone marrow cells are obtained. After preparing hindlimb ischemia animal models using GFP-BMT mice, TUDCA (20 mg/kg) was orally administered to verify vascular repair capability. […] In order to confirm angiogenesis by TUDCA, hindlimb ischemic tissue was removed 14 days after the preparation of the hindlimb ischemia models and subjected to immunofluorescent staining, to verify capillary and arteriole density. […] In order to confirm whether angiogenic stem cells were mobilized by TUDCA from bone marrow to hindlimb ischemic tissue, mobilization capability of angiogenic stem cells was examined by immunofluorescent staining using a bone marrow marker GFP, an angiogenic stem cell marker c-kit, a vascular marker ILB4, into which hindlimb ischemic tissue removed from the hindlimb ischemia models was transplanted 3 days after the preparation. […] In order to examine whether angiogenic stem cells mobilized by TUDCA from bone marrow differentiate into new blood vessels in hindlimb ischemic tissue, vascular differentiation potential of angiogenic stem cells was examined, through immunofluorescent staining and morphological analysis, using a bone marrow marker GFP, a marker of vascular differentiation VEGFR, a vascular marker ILB4, into which hindlimb ischemic tissue removed from the hindlimb ischemia models was transplanted 14 days after the preparation.

[17] = test system: angiogenic stem cells and cell populations in peripheral blood; assay: oral administration to healthy subjects: cell populations mobilized to peripheral blood; format: in vivo, human; conditions: 5 mg/kg oral for 3 days
Description: Upon oral administration of TUDCA to healthy subjects, angiogenic stem cells and various cell populations, which were mobilized to peripheral blood, were confirmed and differentiation potential into functional endothelial progenitor cells was verified using peripheral blood. 5 mg/kg of TUDCA was orally administered to healthy subjects for 3 days, and the expression of angiogenic stem cell markers was examined.

[18] = test system: senescent angiogenic stem cells (passages 13 to 16); assay: β-galactosidase staining of senescent angiogenic stem cells; format: cell-based
Description: In order to use stem cells as a stem cell therapy product, it is important to obtain a sufficient number of stem cells in a healthy state. However, upon in vitro expansion of stem cells for obtaining a sufficient number of stem cells, repeated passages cause senescence of stem cells. In order to resolve this problem, angiogenic stem cells subjected to repeated passages (passages 13 to 16) were treated with TUDCA, to verify senescence inhibition. Senescent angiogenic stem cells were treated with TUDCA and subjected to β-galactosidase staining capable of confirming senescence, to confirm senescence recovery.

[19] = test system: senescent angiogenic stem cells; assay: nitric oxide and reactive oxygen species in senescent angiogenic stem cells; format: cell-based; conditions: senescent angiogenic stem cells treated with TUDCA
[20] = day 14, immunofluorescent staining

C[C@H](CCC(=O)NCCS(=O)(=O)O)[C@H]1CC[C@H]2[C@@H]3[C@@H](O)C[C@@H]4C[C@H](O)CC[C@]4(C)[C@H]3CC[C@]12C [TUDCA, tauroursodeoxycholic acid]
number of CD34+ cells adhered to the stromal cells [1]: significantly decreased
number of CD34+ cells dissociated from the stromal cells [1]: significantly increased
mRNA expression of cell adhesion factors (ICAM, Jagged1, N-cadherin, LFA1, c-kit) [2]: significantly decreased
migration capability of CD34+ cells [3]: significantly increased
number of angiogenic stem cells (CD34+/Sca1+) in peripheral blood [4]: significantly increased
number of angiogenic stem cells (Hill's assay) [5]: increased
number of granulocytes involved in inflammatory response [6]: significantly decreased
EPC colony forming capability of CD34+ HSCs [7]: enhanced
Akt phosphorylation [8]: increased
tube formation capability [9]: significantly increased
mRNA expression levels of CD44, N-cadherin, c-kit, and LFA1 [10]: significantly increased
mRNA expression levels of CD44, Jagged-1, N-cadherin, VLA5, CXCR4, c-kit, and Notch [11]: significantly increased
proliferation capability of angiogenic stem cells [12]: most significantly increased
infiltration capability of angiogenic stem cells [13]: most significantly increased
tube-forming capability of angiogenic stem cells [14]: significantly increased
blood flow improvement (LDPI assay) [15]: significantly increased
number of angiogenic stem cells in ischemic tissue (flow cytometry) ([15]; day 3): increased
number of arterioles [15, 20]: significantly increased
number of capillaries [15, 20]: significantly increased
blood flow (LDPI assay) [16]: significantly improved
number of angiogenic stem cells derived from bone marrow into ischemic tissue ([16]; day 3, GFP/c-kit/ILB4 staining): significantly increased
number of arterioles ([16]; day 14): significantly increased
number of capillaries ([16]; day 14): significantly increased
number of bone marrow-derived angiogenic stem cells differentiated into vascular endothelial cells ([16]; day 14, GFP/VEGFR/ILB4 staining): significantly increased
colony forming capability (EPC-CFA) [17]: significantly increased
distribution of granulocytes involved in inflammatory response [17]: significantly decreased
expression of angiogenic stem cell markers CD34, CD31, and c-kit [17]: significantly increased
number of β-galactosidase positive cells [18]: significantly increased
expression amount of nitric oxide [19]: significantly increased
expression amount of reactive oxygen species [19]: significantly decreased
